# US11420947B2, “(S)-n-hydroxy-2-(2-(4-methoxyphenyl)butanamido)thiazole-5-carboxamide and pharmaceutically acceptable salts thereof” (TRANSLATIONAL DRUG DEVELOPMENT, LLC, priority 2018, dated 2022)
# Legend:
# Assay in all cases: CellTiter-Glo cell viability assay
# [1] = system: A2780cp; assay type: cell-based, Human; conditions: for IC50: A2780C/P, A2780cp, OVARIAN, Platinum res-Human Ovarian, 72 hours
# Description: (§1) Cell viability in the presence of varying concentrations of the above listed compounds at different time points was used to assess cytotoxicity and the effect of the compounds on cell proliferation.
# (§2) Cell viability was measured by the CellTiter-Glo® cell viability assay from Promega (Madison, Wis.). The CellTiter-Glo® Luminescent Cell Viability Assay is a homogeneous method to determine the number of viable cells in culture based on quantitation of the ATP present, which signals the presence of metabolically active cells. Following treatment, CellTiter-Glo® is added to treatment wells and incubated at 37° C. luminescence values were measured at using a Molecular Devices Spectramax microplate reader
# (§3) Cells were grown to 70% confluency, trypsinized, counted, and seeded in 96 well flat-bottom plates at a final concentration of 2.5×10^3-5×10^3 cells/well (Day 0). Cells were allowed to incubate in growth media for 24 hours. Treatment with the test agents or standard agents began on Day 1 and continued for 72 hours. At the 72-hour timepoint, treatment containing media was removed. Viable cell numbers are quantified by the CellTiter-Glo® cell viability assay as described above. Results from these studies were used to calculate an IC50 value (concentration of drug that inhibits cell growth by 50 percent of control) for each compound.
# (§4) For single agent and combination studies, data from each experiment was collected and expressed as % Cell Growth using the following calculation: % Cell Growth=(ftest/fvehicle)×100
# (§5) Where test is the fluorescence of the tested sample, and fvehicle is the fluorescence of the vehicle in which the drug is dissolved. Dose response graphs and IC50 values were generated using Prism 6 software (GraphPad) using the following equation: Y=(Top-Bottom)/(1+10^((logIC^50^-X)-HillSlope))
# [2] = system: A2780; assay type: cell-based, Human; conditions: for IC50: A2780, OVARIAN, Human Ovarian, 72 hours
# Description: as §1, §2, §3, §4, §5
# [3] = system: BIN-67; assay type: cell-based, Human; conditions: for IC50: BIN-67, OVARIAN, Human Small Cell Carcinoma of the Ovary, 72 hours
# Description: as §1, §2, §3, §4, §5
# [4] = system: COV434; assay type: cell-based, Human; conditions: for IC50: COV434, OVARIAN, Human Ovarian Granulosa, 72 hours
# Description: as §1, §2, §3, §4, §5
# [5] = system: IGROV-1; assay type: cell-based, Human; conditions: for IC50: IGROV-1, OVARIAN, Human Ovarian Adenocarcinoma, 72 hours
# Description: as §1, §2, §3, §4, §5
# [6] = system: OVCAR-3; assay type: cell-based, Human; conditions: for IC50: OVCAR-3, OVARIAN, Human Ovarian Carcinoma, 72 hours
# Description: as §1, §2, §3, §4, §5
# [7] = system: OVCAR-8; assay type: cell-based, Human; conditions: for IC50: OVCAR-8, OVARIAN, Human Ovarian Carcinoma, 72 hours
# Description: as §1, §2, §3, §4, §5
# [8] = system: SCCOHT-1; assay type: cell-based, Human; conditions: for IC50: SCCOHT-1, OVARIAN, Human Small Cell Carcinoma of the Ovary, 72 hours
# Description: as §1, §2, §3, §4, §5
# [9] = system: SKOV-3; assay type: cell-based, Human; conditions: for IC50: SK-OV-3, SKOV-3, OVARIAN, Human Ovarian Carcinoma, 72 hours
# Description: as §1, §2, §3, §4, §5
# [10] = system: A427; assay type: cell-based; conditions: for IC50: Homo sapiens, A-427, A427, LUNG, Carcinoma, 72 hours
# Summary of the method: (§6)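 Luminescent ATP quantitation served as the viability measure after a 72-hour treatment begun one day post-seeding. Growth was normalised to vehicle to derive IC50.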
# [11] = system: ASPC-1; assay type: cell-based; conditions: for IC50: Homo sapiens, ASPC1, ASPC-1, PANCREAS, Pancreatic, 72 hours
# Summary of the method: as §6
# [12] = system: HepG2; assay type: cell-based; conditions: for IC50: Homo sapiens, HepG2, LIVER, HCC, 72 hours
# Summary of the method: as §6
# [13] = system: MFE296; assay type: cell-based; conditions: for IC50: Homo sapiens, MFE-296, MFE296, ENDOMETRIAL, Endometrial, 72 hours
# Summary of the method: as §6
# [14] = system: Raji; assay type: cell-based; conditions: for IC50: Homo sapiens, Raji, HEMATOPIETIC, Burkitt’s, 72 hours
# Summary of the method: as §6
# [15] = system: 4T1; assay type: cell-based, Murine; conditions: for IC50: Mus musculus, 4T1, BREAST, Murine Breast Tumor, 72 hours
# Description: as §1, §2, §3, §4, §5
# [16] = system: CT26; assay type: cell-based, Murine; conditions: for IC50: Mus musculus, CT26, MURINE COLON, Colon, 72 hours
# Description: as §1, §2, §3, §4, §5
# [17] = system: GL261; assay type: cell-based, Murine; conditions: for IC50: Mus musculus, GL261, MURINE BRAIN, Murine Glioma, 72 hours
# Description: as §1, §2, §3, §4, §5
# [18] = system: L1210; assay type: cell-based, Murine; conditions: for IC50: Mus musculus, L1210, HEMATOPIETIC, Murine Leukemia, 72 hours
# Description: as §1, §2, §3, §4, §5
# [19] = system: MC38; assay type: cell-based, Murine; conditions: for IC50: Mus musculus, MC-38, MC38, MURINE COLON, Colon, 72 hours
# Description: as §1, §2, §3, §4, §5
smiles,measurement,setting,value
"CCC(C(=O)Nc1ncc(C(=O)NO)s1)c1ccc(OC)cc1 (racemic) [#1, N-hydroxy-2-(2-(4-methoxyphenyl)butanamido)thiazole-5-carboxamide]",IC50,[1],117 nM
same,IC50,[2],48 nM
same,IC50,[3],68 nM
same,IC50,[4],47 nM
same,IC50,[5],78 nM
same,IC50,[6],65 nM
same,IC50,[7],36 nM
same,IC50,[8],341 nM
same,IC50,[9],113 nM
same,IC50,[10],309 nM
same,IC50,[11],158 nM
same,IC50,[12],215 nM
same,IC50,[13],52 nM
same,IC50,[14],105 nM
same,IC50,[15],36 nM
same,IC50,[16],1320 nM
same,IC50,[17],372 nM
same,IC50,[18],59 nM
same,IC50,[19],128 nM
"CC[C@H](C(=O)Nc1ncc(C(=O)NO)s1)c1ccc(OC)cc1 [#1a, (S)—N-hydroxy-2-(2-(4-methoxyphenyl)butanamido)thiazole-5-carboxamide]",IC50,[1],62 nM
same,#1/#1a,"[1]; ratio of IC50, A2780cp",1.89
same,#1b/#1a,"[1]; ratio of IC50, A2780cp",6.1
same,IC50,[2],32 nM
same,#1/#1a,"[2]; ratio of IC50, A2780",1.5
same,#1b/#1a,"[2]; ratio of IC50, A2780",6.84
same,IC50,[3],51 nM
same,#1/#1a,"[3]; ratio of IC50, BIN-67",1.33
same,#1b/#1a,"[3]; ratio of IC50, BIN-67",8.82
same,IC50,[4],35 nM
same,#1b/#1a,"[4]; ratio of IC50, COV434",9.69
same,IC50,[5],54 nM
same,#1/#1a,"[5]; ratio of IC50, IGROV-1",1.44
same,#1b/#1a,"[5]; ratio of IC50, IGROV-1",9.07
same,IC50,[6],39 nM
same,#1/#1a,"[6]; ratio of IC50, OVCAR-3",1.67
same,#1b/#1a,"[6]; ratio of IC50, OVCAR-3",6.26
same,IC50,[7],21 nM
same,#1/#1a,"[7]; ratio of IC50, OVCAR-8",1.71
same,#1b/#1a,"[7]; ratio of IC50, OVCAR-8",5.38
same,IC50,[8],293 nM
same,#1/#1a,"[8]; ratio of IC50, SCCOHT-1",1.16
same,#1b/#1a,"[8]; ratio of IC50, SCCOHT-1",0.63
same,IC50,[9],63 nM
same,#1/#1a,"[9]; ratio of IC50, SKOV-3",1.79
same,#1b/#1a,"[9]; ratio of IC50, SKOV-3",8.08
same,IC50,[10],186 nM
same,#1/#1a,"[10]; ratio of IC50, A427",1.66
same,#1b/#1a,"[10]; ratio of IC50, A427",7.77
same,IC50,[11],112 nM
same,#1/#1a,"[11]; ratio of IC50, ASPC-1",1.41
same,#1b/#1a,"[11]; ratio of IC50, ASPC-1",7.26
same,IC50,[12],76 nM
same,#1/#1a,"[12]; ratio of IC50, HepG2",2.83
same,#1b/#1a,"[12]; ratio of IC50, HepG2",8.3
same,IC50,[13],35 nM
same,#1/#1a,"[13]; ratio of IC50, MFE296",1.49
same,#1b/#1a,"[13]; ratio of IC50, MFE296",5.83
same,IC50,[14],36 nM
same,#1/#1a,"[14]; ratio of IC50, Raji",2.92
same,#1b/#1a,"[14]; ratio of IC50, Raji",7.83
same,IC50,[15],23 nM
same,#1/#1a,"[15]; ratio of IC50, 4T1",1.57
same,#1b/#1a,"[15]; ratio of IC50, 4T1",8.04
same,IC50,[16],465 nM
same,#1/#1a,"[16]; ratio of IC50, CT26",2.83
same,#1b/#1a,"[16]; ratio of IC50, CT26",6.91
same,IC50,[17],132 nM
same,#1/#1a,"[17]; ratio of IC50, GL261",2.82
same,#1b/#1a,"[17]; ratio of IC50, GL261",9.11
same,IC50,[18],38 nM
same,#1/#1a,"[18]; ratio of IC50, L1210",1.55
same,#1b/#1a,"[18]; ratio of IC50, L1210",8.53
same,IC50,[19],58 nM
same,#1/#1a,"[19]; ratio of IC50, MC38",2.21
same,#1b/#1a,"[19]; ratio of IC50, MC38",8.5
"CC[C@@H](C(=O)Nc1ncc(C(=O)NO)s1)c1ccc(OC)cc1 [#1b, (R)—N-hydroxy-2-(2-(4-methoxyphenyl)butanamido)thiazole-5-carboxamide]",IC50,[1],378 nM
same,IC50,[2],219 nM
same,IC50,[3],450 nM
same,IC50,[4],339 nM
same,IC50,[5],490 nM
same,IC50,[6],244 nM
same,IC50,[7],113 nM
same,IC50,[8],185 nM
same,IC50,[9],509 nM
same,IC50,[10],1440 nM
same,IC50,[11],813 nM
same,IC50,[12],631 nM
same,IC50,[13],204 nM
same,IC50,[14],282 nM
same,IC50,[15],185 nM
same,IC50,[16],3210 nM
same,IC50,[17],1200 nM
same,IC50,[18],324 nM
same,IC50,[19],493 nM
